These results are taken from patent EP1245247A1, “Biocidal locks” (Biolink Corporation, priority 2001, dated 2002).

One data set deals with S. epidermis. To be noted: cited from earlier work.
The next data set relates to blood. As to the kind of experiment: Clotting of pig blood collected into containers holding taurolidine solution (Example 1). Particulars: pig blood filled up to the 30 mL level; inspected after 30 minutes. As to the method:
A 0.5% solution of taurolidine in Ringer-lactate solution (Thomae, Biberach, Germany) was introduced into each of four polyethylene bottles having a 30 mL volume. Filling volumes were 5, 10, and 15 mL. One bottle was filled with 5 mL of the taurolidine solution and 2 mL ACD-A (Fresenius, Bad Homburg, Germany) solution. ACD-A solution is used for the conservation of whole blood and contains per liter: 22.0 grams of sodium citrate dihydrate, 7.3 grams of citric acid and 34.5 grams of glucose monohydrate.
Blood was collected at a slaughter house from a female pig directly from the slaughter wound into the containers that were then filled up to the 30 mL level. The containers were capped and gently moved to mix blood with the solution. The containers were inspected after 30 minutes. Blood in the containers containing only taurolidine was clotted, but the blood in the container containing the mixture of taurolidine and ACD-A was not clotted.

For data set [1] the following is noted: mice; cited from earlier work.
Another data set deals with E. coli. Particulars: intravenous 0.2 mL of a 20% solution in sterile 5% polyvinyl pyrrolidone; intraperitoneal E. coli; cited from earlier work.
The test system of the next data set is B. fragilis. To be noted: intravenous 0.2 mL of a 20% solution in sterile 5% polyvinyl pyrrolidone; intraperitoneal B. fragilis; cited from earlier work.
The test system of data set [2] is Vancomycin-Intermediate Susceptibility Staphylococcus Aureus (VISA) and Methicillin-Resistant Staphylococcus Aureus (MRSA). To be noted: range pH 7.0 to pH 5.0; cited from earlier work.
The conditions of data set [3]: mouse, in vivo; cited from earlier work.

As to `O=C([O-])CN(CCN(CC(=O)[O-])CC(=O)O)CC(=O)O.[Na+].[Na+]` [disodium EDTA], the bactericidal concentration with S. epidermis (initial inoculum of 10^3 CFU of staphylococci per mL, in 24 hours) is 20 mg/mL.
With `CN[C@H](CC(C)C)C(=O)N[C@H]1C(=O)N[C@@H](CC(N)=O)C(=O)N[C@H]2C(=O)N[C@H]3C(=O)N[C@H](C(=O)N[C@H](C(=O)O)c4cc(O)cc(O)c4-c4cc3ccc4O)[C@H](O)c3ccc(c(Cl)c3)Oc3cc2cc(c3O[C@@H]2O[C@H](CO)[C@@H](O)[C@H](O)[C@H]2O[C@H]2C[C@](C)(N)[C@H](O)[C@H](C)O2)Oc2ccc(cc2Cl)[C@H]1O` [Vancomycin], the bactericidal dose with S. epidermis (initial inocula of 10^3 CFU/mL) is listed as 6.7 µg/mL.
`O=S1(=O)CCN(CN2CCS(=O)(=O)NC2)CN1` [taurolidine, bis-(1,1-dioxo-perhydroxy-1,2,4-thiadiazin-4-yl)methane]: the “Blood clotting in the containers” value with blood is recorded as “clotted”. For the same compound, the “intraperitoneal LD50” value in data set [1] is ~1500 mg/kg. The mortality rate result in the data set on E. coli and in the data set with B. fragilis was “very significantly reduce the mortality rate” each time. In addition, the “dependence of activity on pH” value in data set [2] was “activity increases with decreasing pH”. In data set [3], the teratogenicity entry was “non-teratogenic”.
